{
  "source": "ChEMBL document CHEMBL6153079",
  "about": "“Discovery of noncovalent diaminopyrimidine-based Inhibitors for glioblastoma via a dual FAK/DNA targeting strategy” (Eur J Med Chem, 2025)",
  "key": {"U-251": {"system": "U-251", "assay": "Antiproliferative activity against human U-251 assessed as cell viability incubated for 48 hrs by MTT assay", "type": "functional, cell-based", "conditions": "U-251, 48 h"}, "Focal adhesion kinase 1 [1]": {"molecular_target": "T1, Focal adhesion kinase 1 (Homo sapiens, UniProt Q05397)", "T1 sequence (Q05397 2-1052 limits assumed)": "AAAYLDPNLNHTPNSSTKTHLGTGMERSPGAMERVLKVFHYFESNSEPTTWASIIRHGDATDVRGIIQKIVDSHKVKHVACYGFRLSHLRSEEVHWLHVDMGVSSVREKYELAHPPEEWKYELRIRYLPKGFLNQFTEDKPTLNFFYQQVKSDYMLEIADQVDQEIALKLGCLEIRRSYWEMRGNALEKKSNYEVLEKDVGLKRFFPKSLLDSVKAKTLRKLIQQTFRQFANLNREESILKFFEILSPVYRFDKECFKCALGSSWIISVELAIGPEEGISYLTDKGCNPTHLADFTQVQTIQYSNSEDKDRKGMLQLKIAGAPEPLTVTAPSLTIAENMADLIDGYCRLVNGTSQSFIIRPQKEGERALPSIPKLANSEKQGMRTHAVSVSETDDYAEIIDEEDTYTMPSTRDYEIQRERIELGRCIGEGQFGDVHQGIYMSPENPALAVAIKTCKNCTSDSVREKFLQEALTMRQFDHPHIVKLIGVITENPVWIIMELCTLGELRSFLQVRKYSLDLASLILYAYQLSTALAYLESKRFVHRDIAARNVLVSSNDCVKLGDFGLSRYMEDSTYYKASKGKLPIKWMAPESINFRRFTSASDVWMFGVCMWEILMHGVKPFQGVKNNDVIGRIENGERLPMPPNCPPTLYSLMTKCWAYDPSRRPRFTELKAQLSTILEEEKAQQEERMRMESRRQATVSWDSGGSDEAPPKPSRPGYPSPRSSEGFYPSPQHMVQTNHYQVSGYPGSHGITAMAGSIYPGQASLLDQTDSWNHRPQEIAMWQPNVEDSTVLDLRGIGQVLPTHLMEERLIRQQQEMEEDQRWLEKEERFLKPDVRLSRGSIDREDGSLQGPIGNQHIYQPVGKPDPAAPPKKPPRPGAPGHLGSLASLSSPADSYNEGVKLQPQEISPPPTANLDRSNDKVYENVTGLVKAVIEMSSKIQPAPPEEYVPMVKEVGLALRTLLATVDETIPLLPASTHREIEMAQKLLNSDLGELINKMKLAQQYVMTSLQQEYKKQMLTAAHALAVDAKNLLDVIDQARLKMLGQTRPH", "assay": "Inhibition of FAK (unknown origin) at 50 nM relative to control"}, "[2]": {"assay": "Cytotoxicity against human LO2 assessed as cell viability incubated for 48 hrs by MTT assay", "type": "toxicity, cell-based, L02", "conditions": "LO2 cells"}, "[3]": {"assay": "Cytotoxicity against human 2BS assessed as cell viability incubated for 48 hrs by MTT assay", "type": "toxicity, cell-based", "conditions": "2BS cells"}, "U-87 MG [4]": {"system": "U-87 MG", "assay": "Antiproliferative activity against human U-87 MG assessed as cell growth inhibition at 0.1 to 2 uM", "type": "functional, cell-based", "conditions": "U-87MG ATCC"}, "U-87 MG [5]": {"system": "U-87 MG", "assay": "Induction of DNA damage in human U-87 MG cells incubated for 2.5 to 3 hrs by comet assay", "type": "functional, cell-based", "conditions": "U-87MG ATCC, dose 0.1-2 µM, time 2.5-3 hrs"}, "U-87 MG [6]": {"system": "U-87 MG", "assay": "Inhibition of colony formation in human U-87 MG cells at 0.005 uM incubated for 14 days and subsequent media replacement with compound for every 3 days by crystal violet staining based analysis", "type": "functional, cell-based", "conditions": "U-87MG ATCC, time 14.0 day"}, "U-87 MG [7]": {"system": "U-87 MG", "assay": "Inhibition of cell migration in human U-87 MG cells assessed as […] in migration distance at 0.1 to 1 uM incubated for 24 to 48 hrs by wound healing assay", "type": "functional, cell-based", "conditions": "U-87MG ATCC, dose 0.1-1 µM, time lower 24.0 hrs, time upper […]"}, "Focal adhesion kinase 1 [8]": {"molecular_target": "T1, Focal adhesion kinase 1", "assay": "Inhibition of FAK phosphorylation in human U-87 MG cells at 0.05 uM incubated for 24 hrs by Western blot analysis", "type": "cell-based"}, "U-87 MG [9]": {"system": "U-87 MG", "assay": "Inhibition of AKT phosphorylation in human U-87 MG cells at 0.8 uM incubated for 24 hrs by Western blot analysis", "type": "cell-based"}, "U-87 MG [10]": {"system": "U-87 MG", "assay": "Inhibition of ERK1/2 phosphorylation in human U-87 MG cells at 0.8 uM incubated for 24 hrs by Western blot analysis", "type": "cell-based"}, "U-87 MG [11]": {"system": "U-87 MG", "assay": "Induction of apoptosis in human U-87 MG cells assessed as early apoptotic cells at 0.01 uM measured upto 24 hrs by Annexin V-FITC/PI staining based flow cytometry analysis (reference value: 0.45%)", "type": "functional, U-87MG ATCC"}, "U-87 MG [12]": {"system": "U-87 MG", "assay": "Induction of apoptosis in human U-87 MG cells assessed as late apoptotic cells at 0.01 uM measured upto 24 hrs by Annexin V-FITC/PI staining based flow cytometry analysis (reference value: 0.54%)", "type": "functional, U-87MG ATCC"}, "U-87 MG [13]": {"system": "U-87 MG", "assay": "Induction of apoptosis in human U-87 MG cells assessed as late apoptotic cells at 2 uM measured upto 24 hrs by Annexin V-FITC/PI staining based flow cytometry analysis (reference value: 0.54%)", "type": "functional, U-87MG ATCC"}, "U-87 MG [14]": {"system": "U-87 MG", "assay": "Induction of apoptosis in human U-87 MG cells assessed as necrotic cells at 0.02 uM measured upto 24 hrs by Annexin V-FITC/PI staining based flow cytometry analysis (reference value: 0.62%)", "type": "functional, U-87MG ATCC"}, "U-87 MG [15]": {"system": "U-87 MG", "assay": "Induction of apoptosis in human U-87 MG cells assessed as viable cells at 0.2 uM measured upto 24 hrs by Annexin V-FITC/PI staining based flow cytometry analysis (reference value: 98.4%)", "type": "functional, U-87MG ATCC", "conditions": "read-out: Activity"}, "U-87 MG [16]": {"system": "U-87 MG", "assay": "Induction of apoptosis in human U-87 MG cells assessed as late apoptotic cells at 0.2 uM measured upto 24 hrs by Annexin V-FITC/PI staining based flow cytometry analysis (reference value: 0.54%)", "type": "functional, U-87MG ATCC"}, "U-87 MG [17]": {"system": "U-87 MG", "assay": "Induction of apoptosis in human U-87 MG cells assessed as necrotic cells at 0.2 uM measured upto 24 hrs by Annexin V-FITC/PI staining based flow cytometry analysis (reference value: 0.62%)", "type": "functional, U-87MG ATCC"}, "U-87 MG [18]": {"system": "U-87 MG", "assay": "Induction of apoptosis in human U-87 MG cells assessed as […] in cleaved caspase-3 level at 0.05 to 0.8 uM incubated for 24 hrs by Western blot analysis", "type": "functional, cell-based", "conditions": "U-87MG ATCC, dose 0.05-0.8 µM"}, "U-87 MG [19]": {"system": "U-87 MG", "assay": "Induction of apoptosis in human U-87 MG cells assessed as […] in Bcl-xL level at 0.05 to 0.8 uM incubated for 24 hrs by Western blot analysis", "type": "functional, cell-based", "conditions": "U-87MG ATCC, dose 0.05-0.8 µM"}, "U-87 MG [20]": {"system": "U-87 MG", "assay": "Induction of cell cycle arrest in human U-87 MG cells assessed as accumulation of cells at […] at 0.01 uM by propidium Iodide staining based flow cytometry analysis (reference value: 1.67%)", "type": "functional, U-87MG ATCC"}, "U-87 MG [21]": {"system": "U-87 MG", "assay": "Induction of cell cycle arrest in human U-87 MG cells assessed as accumulation of cells at S phase at 0.01 uM by propidium Iodide staining based flow cytometry analysis (reference value: 9.59%)", "type": "functional, U-87MG ATCC"}, "U-87 MG [22]": {"system": "U-87 MG", "assay": "Induction of cell cycle arrest in human U-87 MG cells assessed as accumulation of cells at G2M phase at 2 uM by propidium Iodide staining based flow cytometry analysis (reference value: 9.73%)", "type": "functional, U-87MG ATCC"}, "U-87 MG [23]": {"system": "U-87 MG", "assay": "Induction of cell cycle arrest in human U-87 MG cells assessed as accumulation of cells at […] at 2 uM by propidium Iodide staining based flow cytometry analysis (reference value: 1.67%)", "type": "functional, U-87MG ATCC"}, "U-87 MG [24]": {"system": "U-87 MG", "assay": "Induction of cell cycle arrest in human U-87 MG cells assessed as accumulation of cells at S phase at 2 uM by propidium Iodide staining based flow cytometry analysis (reference value: 9.59%)", "type": "functional, U-87MG ATCC"}, "U-87 MG [25]": {"system": "U-87 MG", "assay": "Induction of cell cycle arrest in human U-87 MG cells assessed as accumulation of cells at G0/G1 phase at 0.02 uM by propidium Iodide staining based flow cytometry analysis (reference value: 80.68%)", "type": "functional, U-87MG ATCC"}, "U-87 MG [26]": {"system": "U-87 MG", "assay": "Induction of cell cycle arrest in human U-87 MG cells assessed as accumulation of cells at G2M phase at 0.02 uM by propidium Iodide staining based flow cytometry analysis (reference value: 9.73%)", "type": "functional, U-87MG ATCC"}, "U-87 MG [27]": {"system": "U-87 MG", "assay": "Induction of cell cycle arrest in human U-87 MG cells assessed as accumulation of cells at […] at 0.02 uM by propidium Iodide staining based flow cytometry analysis (reference value: 1.67%)", "type": "functional, U-87MG ATCC"}, "U-87 MG [28]": {"system": "U-87 MG", "assay": "Induction of cell cycle arrest in human U-87 MG cells assessed as accumulation of cells at S phase at 0.2 uM by propidium Iodide staining based flow cytometry analysis (reference value: 9.59%)", "type": "functional, U-87MG ATCC"}, "U-87 MG [29]": {"system": "U-87 MG", "assay": "Antitumor activity against human U-87 MG cells xenografted in BALB/c mouse assessed as inhibition of tumor growth at 5 mg/kg, ip administered once daily for 15 days", "type": "functional, U-87MG ATCC", "conditions": "360 h, time 15 day, read-out: TGI"}, "[30]": {"assay": "Toxicity in BALB/c mouse implanted with human U-87 MG cells assessed as mortality at 5 to 25 mg/kg, ip administered once daily for 15 days by H and E staining based analysis", "type": "organism-based", "conditions": "in vivo, 360 h, dose 5-25 mg/kg, time 15 day"}, "[31]": {"assay": "Toxicity in BALB/c mouse implanted with human U-87 MG cells assessed as lung damage at 5 mg/kg, ip administered once daily for 15 days by H and E staining based analysis", "type": "organism-based", "conditions": "in vivo, 360 h, time 15 day"}, "[32]": {"assay": "Toxicity in BALB/c mouse implanted with human U-87 MG cells assessed as hypertrophy in myocardium at 5 mg/kg, ip administered once daily for 15 days by H and E staining based analysis", "type": "organism-based", "conditions": "in vivo, 360 h, time 15 day"}, "[33]": {"assay": "Toxicity in BALB/c mouse implanted with human U-87 MG cells assessed as tubular epithelial degeneration in renal cortex at 25 mg/kg, ip administered once daily for 15 days by H and E staining based analysis", "type": "organism-based", "conditions": "in vivo, 360 h, time 15 day"}},
  "note": "pIC50: −log10 of the molar value. Calls of active or inactive are those of the source. The rule behind the calls is not given here.",
  "data": [
    {"compound": "CNC(=O)c1ccccc1Nc1nc(Nc2ccc(N3CCN(CCOC(=O)CCCc4ccc(N(CCCl)CCCl)cc4)CC3)cc2)ncc1C(F)(F)F", "values": [
      {"measurement": "pIC50", "setting": "U-251", "result": 7.70},
      {"measurement": "inhibition", "setting": "Focal adhesion kinase 1 [1]", "result": 100, "unit": "%"},
      {"measurement": "IC50 at 48 h", "setting": "[2]", "result": 586, "unit": "nM"},
      {"measurement": "IC50 at 48 h", "setting": "[3]", "result": 11100, "unit": "nM"},
      {"measurement": "Activity", "setting": "U-87 MG [4]", "result": "Active"},
      {"measurement": "Activity", "setting": "U-87 MG [5]", "result": "Dose-dependent-effect; Ability To Induce Dna Damage Was Stronger Than That Of Tmx And Chlorambucil"},
      {"measurement": "inhibition", "setting": "U-87 MG [6]", "result": "Active"},
      {"measurement": "inhibition", "setting": "U-87 MG [7]", "result": "Active"},
      {"measurement": "inhibition", "setting": "Focal adhesion kinase 1 [8]", "result": "Active"},
      {"measurement": "inhibition", "setting": "U-87 MG [9]", "result": 100, "unit": "%"},
      {"measurement": "inhibition", "setting": "U-87 MG [10]", "result": 100, "unit": "%"},
      {"measurement": "Activity", "setting": "U-87 MG [11]", "result": 15.8, "unit": "%"},
      {"measurement": "Activity", "setting": "U-87 MG [12]", "result": 4.61, "unit": "%"},
      {"measurement": "Activity", "setting": "U-87 MG [13]", "result": 7.19, "unit": "%"},
      {"measurement": "Activity", "setting": "U-87 MG [14]", "result": 5.5, "unit": "%"},
      {"measurement": "viability at 0.2 µM", "setting": "U-87 MG [15]", "result": 63.7, "unit": "%"},
      {"measurement": "Activity", "setting": "U-87 MG [16]", "result": 5.65, "unit": "%"},
      {"measurement": "Activity", "setting": "U-87 MG [17]", "result": 2.31, "unit": "%"},
      {"measurement": "Activity", "setting": "U-87 MG [18]", "result": "Active"},
      {"measurement": "Activity", "setting": "U-87 MG [19]", "result": "Active"},
      {"measurement": "Activity", "setting": "U-87 MG [20]", "result": 1.77, "unit": "%"},
      {"measurement": "Activity", "setting": "U-87 MG [21]", "result": 13.83, "unit": "%"},
      {"measurement": "Activity", "setting": "U-87 MG [22]", "result": 50.11, "unit": "%"},
      {"measurement": "Activity", "setting": "U-87 MG [23]", "result": 1.88, "unit": "%"},
      {"measurement": "Activity", "setting": "U-87 MG [24]", "result": 10.99, "unit": "%"},
      {"measurement": "Activity", "setting": "U-87 MG [25]", "result": 62.68, "unit": "%"},
      {"measurement": "Activity", "setting": "U-87 MG [26]", "result": 20.9, "unit": "%"},
      {"measurement": "Activity", "setting": "U-87 MG [27]", "result": 1.87, "unit": "%"},
      {"measurement": "Activity", "setting": "U-87 MG [28]", "result": 11.41, "unit": "%"},
      {"measurement": "inhibition in vivo at 5 mg/kg", "setting": "U-87 MG [29]", "result": 63.7, "unit": "%"},
      {"measurement": "Activity", "setting": "[30]", "result": "Non-toxic"},
      {"measurement": "Activity", "setting": "[31]", "result": "Non-toxic"},
      {"measurement": "Activity", "setting": "[32]", "result": "Non-toxic"},
      {"measurement": "Activity", "setting": "[33]", "result": "Non-toxic"}
    ]}
  ]
}
